This passage reports melting point and EC (150% of control) results from patent US9440962B2, “Benzisoxazoles” (Hoffmann-La Roche Inc., priority 2012, dated 2016).

Data set [1] deals with human embryonic stem cell derived neural stem cells (NSCs). The data set can be described thus: Neural stem cell proliferation assay (neurogenesis assay, ATP levels by CellTiterGlo). Type of data set: cell-based. Particulars: 96 h, compound concentration at which 150% activity of control (100%) is reached, ATP levels after 4 days incubation, dose response 8 μM to 8 nM. On the procedure: Neural Stem Cell Proliferation Assay
Neurogenic properties of small molecules are determined based on the proliferation of human embryonic stem cell derived neural stem cells (NSCs) which were derived via a dual smad inhibition as previously described (Chambers, S. M., et al., Highly efficient neural conversion of human ES and iPS cells by dual inhibition of SMAD signaling, Nature biotechnology, 2009. 27(3): p. 275-80.)
Compounds respond is measured by the increase in cells based on ATP levels (Promega:CellTiterGlo®) after an incubation period of 4 days.
NSCs are thawed and expanded over 3 passages. On the 14th day, NSCs are seeded in Polyornithin/Laminin coated 384 well plates at a cell density of 21′000 cells/cm^2 in a media volume of 38 μl.
4 hours after cell seeding, compound solutions are added at a volume of 2 μl. Stock solutions of the compounds (water, 5% DMSO) are diluted to obtain a dose response (11 points, dilution factor is 2), ranging from 8 μM to 8 nM. Controls are run to consistently determine the neurogenic properties of the cells: • Negative (neutral) control is cell culture Media (final DMSO concentration: 0.25%). Positive controls are: • 1. cell culture Media+100 ng/ml FGF2 (final DMSO concentration: 0.1%) • 2. cell culture Media+20 ng/ml EGF (final DMSO concentration: 0.1%) • 3. cell culture Media+100 ng/ml Wnt3a (final DMSO concentration: 0.1%)
After 4 days incubation at 37° C., 5% CO2, the amount of ATP per well is quantified. The ATP concentration is proportional to the cell number. ATP is quantified by using the Promega CellTiterGlo® kit. The CellTiterGlo® reagents contain a cell lysis buffer, a thermo stable luciferase (UltraGlo™ recombinant luciferase), magnesium and luciferin. Luciferin reacts with ATP producing oxyluciferin, AMP and light. The luminescence signal is proportional to the ATP content.
The value of negative (neutral) control is determined for each assay plate by taking the average of 16 negative control wells. The neurogenic compound response is calculated for each compound as (compound/Negative Control)* 100.
The values of EC150 from the dose response curve are determined for each test compound. The EC150 is the compound concentration at which 150% activity of control (100%) is reached.
On the technique in general: Cellular ATP, detected with luciferase, serves as a proxy for viable cell number.

On to `COc1ccc(-c2onc3ccc(-c4ccnn4-c4ccc(C)cc4)cc23)cc1F` [Example 39, 3-(3-Fluoro-4-methoxy-phenyl)-5-(2-p-tolyl-2H-pyrazol-3-yl)-benzo[c]isoxazole], for which the melting point (usually the temperature of the solid-liquid transition) amounted to 197 °C. Besides, the EC (150% of control) in data set [1] was 0.25 µM.
For `Fc1ccc(-n2nccc2-c2ccc3noc(-c4ccc(Cl)cc4)c3c2)c(F)c1` [Example 32, 3-(4-Chloro-phenyl)-5-[2-(2,4-difluoro-phenyl)-2H-pyrazol-3-yl]-benzo[c]isoxazole], in that order: 155 °C and 0.073 µM.
Consider `Fc1ccc(-n2nccc2-c2ccc3noc(-c4cccc(F)c4)c3c2)cc1` [Example 10, 3-(3-Fluoro-phenyl)-5-[2-(4-fluoro-phenyl)-2H-pyrazol-3-yl]-benzo[c]isoxazole], for which the melting point worked out at 176 °C. Besides, in data set [1], the EC (150% of control) is 0.56 µM.
On the same counts, the results for `Fc1cccc(-c2onc3ccc(-c4ccnn4-c4ccccc4F)cc23)c1` [Example 2, 3-(3-Fluoro-phenyl)-5-[2-(2-fluoro-phenyl)-2H-pyrazol-3-yl]-benzo[c]isoxazole] are 186 °C and 0.29 µM.
For `Fc1ccc(-c2onc3ccc(-c4ccnn4-c4ccc(Cl)cc4)cc23)cc1` [Example 25, 5-[2-(4-Chloro-phenyl)-2H-pyrazol-3-yl]-3-(4-fluoro-phenyl)-benzo[c]isoxazole], in that order: 154 °C and 0.32 µM.
For `Cc1ccc(-c2onc3ccc(-c4ccnn4-c4ccc(F)cc4)cc23)cc1` [Example 11, 5-[2-(4-Fluoro-phenyl)-2H-pyrazol-3-yl]-3-p-tolyl-benzo[c]isoxazole], in that order: 158 °C and 0.23 µM.
In the case of `Cc1ccc(-c2onc3ccc(-c4ccnn4-c4ccc(F)cc4F)cc23)cc1` [Example 30, 5-[2-(2,4-Difluoro-phenyl)-2H-pyrazol-3-yl]-3-p-tolyl-benzo[c]isoxazole], the melting point was determined as 147 °C. The same compound came in with an EC (150% of control) in data set [1] of 0.04 µM.
For `Fc1ccccc1-n1nccc1-c1ccc2noc(-c3ccc(Br)cc3)c2c1` [Example 7, 3-(4-Bromo-phenyl)-5-[2-(2-fluoro-phenyl)-2H-pyrazol-3-yl]benzo[c]isoxazole], in that order: 202 °C and 0.054 µM.
For `COc1ccc(-c2onc3ccc(-c4ccnn4-c4ccc(F)cc4)cc23)cc1` [Example 13, 5-[2-(4-Fluoro-phenyl)-2H-pyrazol-3-yl]-3-(4-methoxy-phenyl)-benzo[c]isoxazole], in that order: 153 °C and 0.39 µM.
On the same counts, the results for `COc1ccc(-n2nccc2-c2ccc3noc(-c4ccc(Cl)cc4)c3c2)cc1` [Example 23, 3-(4-Chloro-phenyl)-5-[2-(4-methoxy-phenyl)-2H-pyrazol-3-yl]-benzo[c]isoxazole] are 177 °C and 0.31 µM.
In the case of `Fc1ccc(-c2onc3ccc(-c4ccnn4-c4ccccn4)cc23)cc1` [Example 35, 3-(4-Fluoro-phenyl)-5-(2-pyridin-2-yl-2H-pyrazol-3-yl)-benzo[c]isoxazole], the melting point stood at 175 °C. Moreover, the EC (150% of control) in data set [1] stood at 0.04 µM.
With `COc1ccc(-c2onc3ccc(-c4ccnn4-c4ccc(C)cc4)cc23)cc1` [Example 19, 3-(4-Methoxy-phenyl)-5-(2-p-tolyl-2H-pyrazol-3-yl)-benzo[c]isoxazole], the melting point stood at 165 °C. Besides, in data set [1], the EC (150% of control) was 0.045 µM.
On the same counts, the results for `Clc1ccc(-c2onc3ccc(-c4ccnn4-c4ccccc4Cl)cc23)cc1` [Example 42, 3-(4-Chloro-phenyl)-5-[2-(2-chloro-phenyl)-2H-pyrazol-3-yl]-benzo[c]isoxazole] are 172 °C and 0.3 µM.
For `Cc1ccc(-n2nccc2-c2ccc3noc(-c4ccc(F)c(F)c4)c3c2)cc1` [Example 38, 3-(3,4-Difluoro-phenyl)-5-(2-p-tolyl-2H-pyrazol-3-yl)-benzo[c]isoxazole], in that order: 198 °C and 0.48 µM.
For `COc1ccc(-c2onc3ccc(-c4ccnn4-c4ccc(OC)cc4)cc23)cc1` [Example 24, 3-(4-Methoxy-phenyl)-5-[2-(4-methoxy-phenyl)-2H-pyrazol-3-yl]-benzo[c]isoxazole], in that order: 133 °C and 0.26 µM.
For `Fc1ccc(-n2nccc2-c2ccc3noc(-c4ccc(C(F)(F)F)cc4)c3c2)c(F)c1` [Example 31, 5-[2-(2,4-Difluoro-phenyl)-2H-pyrazol-3-yl]-3-(4-trifluoromethyl-phenyl)-benzo[c]isoxazole], the melting point amounted to 159 °C. In data set [1], this compound yielded an EC (150% of control) of 0.96 µM.
